# Reference: PMC6409085, “Three odorant-binding proteins are involved in the behavioral response of Sogatella furcifera to rice plant volatiles” (PeerJ, 2019)
# Values joined by “and” are separate entries in the source; they are usually repeats but may differ in a detail not shown here. Equal values may be shown once.
# What was measured:
# Assay in all cases: biochemical
# Format in all cases: binding
# [1] = target: SfurOBP11 (Sogatella furcifera, UniProt V5T6E3)
# Procedure: (§1) Thirty-six rice odorants ([He et al., 2014]; [Wang et al., 2017]) and 1-N-phenyl-naphthylamine (1-NPN) were purchased from Sigma-Aldrich (St Louis, MO, USA). These odorants and 1-NPN were dissolved in high-performance liquid chromatography (HPLC) purify grade methanol for 1.0 mM as work solution.
# (§2) Fluorescence competitive binding assays were performed on Tecan Spark 10M (Tecan Group Ltd., Männedorf, Switzerland) with the F96 Black ELIAS Plate (Sangon) ([Khuhro et al., 2017]; [Liu et al., 2017]). The solutions were excited at 337 nm and emission spectra were recorded between 390 and 490 nm. First, to test the binding constants of 1-NPN to the SfurOBPs, a 2.0 µM solution of protein in 50 mM Tris-HCl (pH = 7.4) was titrated with 1 mM 1-NPN to achieve virous concentrations. Next, the competitive binding of each odorant was measured using the 1-NPN as fluorescent reporter and odorant as competitor. The concentrations of protein and 1-NPN were both 2.0 µM, the odorant added after protein and 1-NPN added into the well of ELIAS Plate for 2 min. The final concentrations of each competitor were 2, 4, 6, 8, 10, 12, 14, 16, 18 and 20 µM. After 2 min of odorant added, the fluorescence intensity was measured and recorded. The volume of mixed solution in each well was maintained at 250 µL. Each interaction was performed in triplicates.
# (§3) GraphPad Prism 7.0 software (GraphPad Software, Inc., La Jolla, CA, USA) was used to calculated and generated the binding constants (K1−NPN) of 1-NPN to SfurOBPs and relative Scatchard plots ([Ban et al., 2003]; [Li et al., 2016]). Dissociation constant (Ki) of each odorant to SfurOBP was computed from the corresponding IC50 value (the half maximal inhibitory concentration), using the following equation: Ki=[IC50]/(1 + [1-NPN]/K1−NPN), where [1-NPN] is the free concentration of 1-NPN and K1−NPN is the dissociation constant of the complex protein/1-NPN.
# [2] = target: SfurOBP3 (Sogatella furcifera, UniProt V5T818); conditions: for Fluorescence competitive binding assay, fluorescence intensity: OBP3, three replicate columns
# Procedure: as §1, §2, §3
# [3] = target: SfurOBP1 (Sogatella furcifera, UniProt V5T8N5); conditions: for Fluorescence competitive binding assay, fluorescence intensity: OBP1, three replicate columns
# Procedure: as §1, §2, §3
# [4] = target: SfurOBP2 (Sogatella furcifera, UniProt V5T759)
# Procedure: as §1, §2, §3
# Sequence of SfurOBP2 (V5T759 entry or part of it): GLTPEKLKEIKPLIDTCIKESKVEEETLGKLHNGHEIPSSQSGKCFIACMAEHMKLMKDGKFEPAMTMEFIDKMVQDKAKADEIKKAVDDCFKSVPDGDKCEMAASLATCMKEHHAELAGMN
# Sequence of SfurOBP1 (V5T8N5 entry or part of it): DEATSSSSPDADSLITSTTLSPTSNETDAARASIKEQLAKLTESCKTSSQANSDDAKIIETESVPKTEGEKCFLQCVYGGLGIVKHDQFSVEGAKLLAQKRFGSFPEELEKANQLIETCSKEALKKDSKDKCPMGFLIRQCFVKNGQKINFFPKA
# Sequence of SfurOBP3 (V5T818 entry or part of it): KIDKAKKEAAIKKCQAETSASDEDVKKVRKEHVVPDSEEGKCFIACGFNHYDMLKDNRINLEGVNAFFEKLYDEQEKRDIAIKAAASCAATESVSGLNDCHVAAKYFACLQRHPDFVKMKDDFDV
# Sequence of SfurOBP11 (V5T6E3 entry or part of it): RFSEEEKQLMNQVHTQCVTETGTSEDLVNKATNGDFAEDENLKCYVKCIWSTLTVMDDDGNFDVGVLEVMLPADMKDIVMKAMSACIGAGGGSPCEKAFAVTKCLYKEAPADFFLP
smiles,measurement,setting,value
O=C(c1ccccc1)c1ccccc1 [benzophenone],IC50,[1],16.3 µM
same,"Fluorescence intensity, fluorescence competitive binding assay, OBP11","[1]; ligand concentration 2, replicate 1",21450
same,"Fluorescence intensity, fluorescence competitive binding assay, OBP11","[1]; ligand concentration 2, replicate 2",21005
same,"Fluorescence intensity, fluorescence competitive binding assay, OBP11","[1]; ligand concentration 2, replicate 3",21027
same,"Fluorescence intensity, fluorescence competitive binding assay, OBP11","[1]; ligand concentration 4, replicate 1",20588
same,"Fluorescence intensity, fluorescence competitive binding assay, OBP11","[1]; ligand concentration 4, replicate 2",20654
same,"Fluorescence intensity, fluorescence competitive binding assay, OBP11","[1]; ligand concentration 4, replicate 3",20719
same,"Fluorescence intensity, fluorescence competitive binding assay, OBP11","[1]; ligand concentration 6, replicate 1",19889
same,"Fluorescence intensity, fluorescence competitive binding assay, OBP11","[1]; ligand concentration 6, replicate 2",20401
same,"Fluorescence intensity, fluorescence competitive binding assay, OBP11","[1]; ligand concentration 6, replicate 3",19317
same,"Fluorescence intensity, fluorescence competitive binding assay, OBP11","[1]; ligand concentration 8, replicate 1",19997
same,"Fluorescence intensity, fluorescence competitive binding assay, OBP11","[1]; ligand concentration 8, replicate 2",20308
same,"Fluorescence intensity, fluorescence competitive binding assay, OBP11","[1]; ligand concentration 8, replicate 3",18308
same,"Fluorescence intensity, fluorescence competitive binding assay, OBP11","[1]; ligand concentration 10, replicate 1",18532
same,"Fluorescence intensity, fluorescence competitive binding assay, OBP11","[1]; ligand concentration 10, replicate 2",18946
same,"Fluorescence intensity, fluorescence competitive binding assay, OBP11","[1]; ligand concentration 10, replicate 3",17435
same,"Fluorescence intensity, fluorescence competitive binding assay, OBP11","[1]; ligand concentration 12, replicate 1",17719
same,"Fluorescence intensity, fluorescence competitive binding assay, OBP11","[1]; ligand concentration 12, replicate 2",18881
same,"Fluorescence intensity, fluorescence competitive binding assay, OBP11","[1]; ligand concentration 12, replicate 3",17057
same,"Fluorescence intensity, fluorescence competitive binding assay, OBP11","[1]; ligand concentration 14, replicate 1",16744
same,"Fluorescence intensity, fluorescence competitive binding assay, OBP11","[1]; ligand concentration 14, replicate 2",17392
same,"Fluorescence intensity, fluorescence competitive binding assay, OBP11","[1]; ligand concentration 14, replicate 3",16199
same,"Fluorescence intensity, fluorescence competitive binding assay, OBP11","[1]; ligand concentration 16, replicate 1",16069
same,"Fluorescence intensity, fluorescence competitive binding assay, OBP11","[1]; ligand concentration 16, replicate 2",15955
same,"Fluorescence intensity, fluorescence competitive binding assay, OBP11","[1]; ligand concentration 16, replicate 3",16012
same,"Fluorescence intensity, fluorescence competitive binding assay, OBP11","[1]; ligand concentration 18, replicate 1",16341
same,"Fluorescence intensity, fluorescence competitive binding assay, OBP11","[1]; ligand concentration 18, replicate 2",15453
same,"Fluorescence intensity, fluorescence competitive binding assay, OBP11","[1]; ligand concentration 18, replicate 3",16084
same,"Fluorescence intensity, fluorescence competitive binding assay, OBP11","[1]; ligand concentration 20, replicate 1",15275
same,"Fluorescence intensity, fluorescence competitive binding assay, OBP11","[1]; ligand concentration 20, replicate 2",14432
same,"Fluorescence intensity, fluorescence competitive binding assay, OBP11","[1]; ligand concentration 20, replicate 3",14489
same,IC50,[2],> 20 µM
same,"Fluorescence competitive binding assay, fluorescence intensity",[2]; ligand concentration 2,66323 and 67865 and 69406
same,"Fluorescence competitive binding assay, fluorescence intensity",[2]; ligand concentration 4,72270 and 71733 and 72815
same,"Fluorescence competitive binding assay, fluorescence intensity",[2]; ligand concentration 6,57537 and 56825 and 55208
same,"Fluorescence competitive binding assay, fluorescence intensity",[2]; ligand concentration 8,58199 and 53071 and 55635
same,"Fluorescence competitive binding assay, fluorescence intensity",[2]; ligand concentration 10,54477 and 51518 and 50551
same,"Fluorescence competitive binding assay, fluorescence intensity",[2]; ligand concentration 12,55084 and 52185 and 53632
same,"Fluorescence competitive binding assay, fluorescence intensity",[2]; ligand concentration 14,52805 and 53281 and 53058
same,"Fluorescence competitive binding assay, fluorescence intensity",[2]; ligand concentration 16,41260 and 41464 and 41332
same,"Fluorescence competitive binding assay, fluorescence intensity",[2]; ligand concentration 18,39853 and 41331 and 40577
same,"Fluorescence competitive binding assay, fluorescence intensity",[2]; ligand concentration 20,39610 and 40773 and 38426
same,IC50,[3],> 20 µM
same,"Fluorescence competitive binding assay, fluorescence intensity",[3]; ligand concentration 2 (μM),4924 and 4810 and 4695
same,"Fluorescence competitive binding assay, fluorescence intensity",[3]; ligand concentration 4 (μM),5262 and 5281 and 5299
same,"Fluorescence competitive binding assay, fluorescence intensity",[3]; ligand concentration 6 (μM),5268 and 5717 and 5292
same,"Fluorescence competitive binding assay, fluorescence intensity",[3]; ligand concentration 8 (μM),5360 and 5130 and 5580
same,"Fluorescence competitive binding assay, fluorescence intensity",[3]; ligand concentration 10 (μM),5344 and 5432 and 5519
same,"Fluorescence competitive binding assay, fluorescence intensity",[3]; ligand concentration 12 (μM),5178 and 5515 and 5347
same,"Fluorescence competitive binding assay, fluorescence intensity",[3]; ligand concentration 14 (μM),5173 and 5557 and 5365
same,"Fluorescence competitive binding assay, fluorescence intensity",[3]; ligand concentration 16 (μM),5828 and 4931 and 5380
same,"Fluorescence competitive binding assay, fluorescence intensity",[3]; ligand concentration 18 (μM),5476 and 5297 and 5257
same,"Fluorescence competitive binding assay, fluorescence intensity",[3]; ligand concentration 20 (μM),5039 and 5512 and 5595
same,IC50,[4],> 20 µM
same,"Fluorescence competitive binding assay, OBP2 (raw fluorescence reading)","[4]; ligand concentration 2 (unit not given), replicate column 1 of 3",16222
same,"Fluorescence competitive binding assay, OBP2 (raw fluorescence reading)","[4]; ligand concentration 2 (unit not given), replicate column 2 of 3",16950
same,"Fluorescence competitive binding assay, OBP2 (raw fluorescence reading)","[4]; ligand concentration 2 (unit not given), replicate column 3 of 3",16565
same,"Fluorescence competitive binding assay, OBP2 (raw fluorescence reading)","[4]; ligand concentration 4 (unit not given), replicate column 1 of 3",15645
same,"Fluorescence competitive binding assay, OBP2 (raw fluorescence reading)","[4]; ligand concentration 4 (unit not given), replicate column 2 of 3",17125
same,"Fluorescence competitive binding assay, OBP2 (raw fluorescence reading)","[4]; ligand concentration 4 (unit not given), replicate column 3 of 3",16794
same,"Fluorescence competitive binding assay, OBP2 (raw fluorescence reading)","[4]; ligand concentration 6 (unit not given), replicate column 1 of 3",16160
same,"Fluorescence competitive binding assay, OBP2 (raw fluorescence reading)","[4]; ligand concentration 6 (unit not given), replicate column 2 of 3",16241
same,"Fluorescence competitive binding assay, OBP2 (raw fluorescence reading)","[4]; ligand concentration 6 (unit not given), replicate column 3 of 3",16073
same,"Fluorescence competitive binding assay, OBP2 (raw fluorescence reading)","[4]; ligand concentration 8 (unit not given), replicate column 1 of 3",14263
same,"Fluorescence competitive binding assay, OBP2 (raw fluorescence reading)","[4]; ligand concentration 8 (unit not given), replicate column 2 of 3",14653
same,"Fluorescence competitive binding assay, OBP2 (raw fluorescence reading)","[4]; ligand concentration 8 (unit not given), replicate column 3 of 3",15131
same,"Fluorescence competitive binding assay, OBP2 (raw fluorescence reading)","[4]; ligand concentration 10 (unit not given), replicate column 1 of 3",13747
same,"Fluorescence competitive binding assay, OBP2 (raw fluorescence reading)","[4]; ligand concentration 10 (unit not given), replicate column 2 of 3",14449
same,"Fluorescence competitive binding assay, OBP2 (raw fluorescence reading)","[4]; ligand concentration 10 (unit not given), replicate column 3 of 3",15134
same,"Fluorescence competitive binding assay, OBP2 (raw fluorescence reading)","[4]; ligand concentration 12 (unit not given), replicate column 1 of 3",12905
same,"Fluorescence competitive binding assay, OBP2 (raw fluorescence reading)","[4]; ligand concentration 12 (unit not given), replicate column 2 of 3",13209
same,"Fluorescence competitive binding assay, OBP2 (raw fluorescence reading)","[4]; ligand concentration 12 (unit not given), replicate column 3 of 3",14417
same,"Fluorescence competitive binding assay, OBP2 (raw fluorescence reading)","[4]; ligand concentration 14 (unit not given), replicate column 1 of 3",11252
same,"Fluorescence competitive binding assay, OBP2 (raw fluorescence reading)","[4]; ligand concentration 14 (unit not given), replicate column 2 of 3",12436
same,"Fluorescence competitive binding assay, OBP2 (raw fluorescence reading)","[4]; ligand concentration 14 (unit not given), replicate column 3 of 3",12979
same,"Fluorescence competitive binding assay, OBP2 (raw fluorescence reading)","[4]; ligand concentration 16 (unit not given), replicate column 1 of 3",11787
same,"Fluorescence competitive binding assay, OBP2 (raw fluorescence reading)","[4]; ligand concentration 16 (unit not given), replicate column 2 of 3",11767
same,"Fluorescence competitive binding assay, OBP2 (raw fluorescence reading)","[4]; ligand concentration 16 (unit not given), replicate column 3 of 3",11673
same,"Fluorescence competitive binding assay, OBP2 (raw fluorescence reading)","[4]; ligand concentration 18 (unit not given), replicate column 1 of 3",12436
same,"Fluorescence competitive binding assay, OBP2 (raw fluorescence reading)","[4]; ligand concentration 18 (unit not given), replicate column 2 of 3",11331
same,"Fluorescence competitive binding assay, OBP2 (raw fluorescence reading)","[4]; ligand concentration 18 (unit not given), replicate column 3 of 3",11969
same,"Fluorescence competitive binding assay, OBP2 (raw fluorescence reading)","[4]; ligand concentration 20 (unit not given), replicate column 1 of 3",11423
same,"Fluorescence competitive binding assay, OBP2 (raw fluorescence reading)","[4]; ligand concentration 20 (unit not given), replicate column 2 of 3",12242
same,"Fluorescence competitive binding assay, OBP2 (raw fluorescence reading)","[4]; ligand concentration 20 (unit not given), replicate column 3 of 3",11724
